In patent US20240218022A1, “ANTI-VISTA MACROCYCLIC PEPTIDES AND COMPOSITIONS” (BRISTOL-MYERS SQUIBB COMPANY, priority 2022, published 2024):
Positions of bridges follow the written chain, without caps; N, C: chain ends. Non-standard residues stand in square brackets, D forms with d. Residues, ends and D or L forms follow the SMILES beside them. 2Nal = N[C@@H](Cc1ccc2ccccc2c1)C(=O)O; NMeR = CN[C@@H](CCCNC(=N)N)C(=O)O; Cit = NC(=O)NCCC[C@H](N)C(=O)O; Ahp(2) = CCCCC[C@H](N)C(=O)O; NMeNle = CCCC[C@H](NC)C(=O)O; NMeS = CN[C@@H](CO)C(=O)O; NHexGly = CCCCCCNCC(=O)O; Nle = CCCC[C@H](N)C(=O)O; Orn = NCCC[C@H](N)C(=O)O

Target: T1, mouse VISTA (mVISTA) (Mus musculus, UniProt Q9D659)
T1 construct: expressed in transfected cells; host or cells: Human embryonic kidney 293T cells
T1 sequence (Q9D659 33-308): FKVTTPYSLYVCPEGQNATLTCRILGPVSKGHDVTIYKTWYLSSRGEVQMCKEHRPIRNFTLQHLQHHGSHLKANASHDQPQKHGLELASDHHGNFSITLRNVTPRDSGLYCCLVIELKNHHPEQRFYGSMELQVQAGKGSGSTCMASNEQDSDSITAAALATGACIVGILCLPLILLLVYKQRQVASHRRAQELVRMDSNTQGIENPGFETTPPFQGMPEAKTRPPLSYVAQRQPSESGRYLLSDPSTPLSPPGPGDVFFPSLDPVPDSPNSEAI
Test: Cell-Based Binding High-Content Assay For mVISTA (HC CBA mVISTA)
Settings: cell-based binding high-content assay, mVISTA; the 15th table; read-out: HC CBA mVISTA IC50
Outline: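 Read-out: Alexa 647–streptavidin signal imaged on fixed, Hoechst-stained mVISTA-293T cells, with IC50 taken from a four-parameter logistic curve. Compounds competed with 2 nM biotinylated peptide for 30 min at room temperature, tested under both no-wash and wash (1 h compound, media exchange, 1 h) formats.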

Structure (SMILES)	IC50
CCCCCCN1CC(=O)N[C@@H](Cc2ccc(O)cc2)C(=O)N[C@@H](CCCC)C(=O)N[C@@H](CC(N)=O)C(=O)N[C@@H](CCCNC(=N)N)C(=O)N(C)[C@@H](CCCC)C(=O)N[C@@H](CCCCC)C(=O)N2CCC[C@H]2C(=O)N[C@@H](C(C)C)C(=O)N[C@@H](CC(N)=O)C(=O)N[C@H](C(=O)NCC(=O)O)CSCC(=O)N[C@@H](Cc2ccc3ccccc3c2)C(=O)N[C@@H](Cc2c[nH]c3ccccc23)C(=O)N[C@@H](CC(=O)O)C1=O [compound 1249] ({CH2CO}-[2Nal]WD[NHexGly]Y[Nle]NR[NMeNle][Ahp(2)]PVNCG-OH; thioether N-14)	13.9 nM
CCCCCCN1CC(=O)N[C@@H](Cc2ccc(O)cc2)C(=O)N[C@@H](CCCCC)C(=O)N[C@@H](CC(N)=O)C(=O)N[C@@H](CCCNC(=N)N)C(=O)N(C)[C@@H](CCCC)C(=O)N[C@@H](CCCCC)C(=O)N2CCC[C@H]2C(=O)N[C@@H](C(C)C)C(=O)N[C@@H](C(C)C)C(=O)N[C@H](C(=O)NCC(=O)O)CSCC(=O)N[C@@H](Cc2ccc3ccccc3c2)C(=O)N[C@@H](Cc2c[nH]c3ccccc23)C(=O)N[C@@H](CC(=O)O)C1=O [compound 1250] ({CH2CO}-[2Nal]WD[NHexGly]Y[Ahp(2)]NR[NMeNle][Ahp(2)]PVVCG-OH; thioether N-14)	22.1 nM
CCCCCCN1CC(=O)N[C@@H](Cc2ccc(O)cc2)C(=O)N[C@@H](CCCCC)C(=O)N[C@@H](CC(N)=O)C(=O)N[C@@H](CCCNC(=N)N)C(=O)N(C)[C@@H](CCCC)C(=O)N[C@@H](CCCCC)C(=O)N2CCC[C@H]2C(=O)N[C@@H](C(C)C)C(=O)N[C@@H](CC(=O)O)C(=O)N[C@H](C(=O)NCC(=O)O)CSCC(=O)N[C@@H](Cc2ccc3ccccc3c2)C(=O)N[C@@H](Cc2c[nH]c3ccccc23)C(=O)N[C@@H](CC(=O)O)C1=O [compound 1251] ({CH2CO}-[2Nal]WD[NHexGly]Y[Ahp(2)]NR[NMeNle][Ahp(2)]PVDCG-OH; thioether N-14)	12.5 nM
CCCCCCN1CC(=O)N[C@@H](Cc2ccc(O)cc2)C(=O)N[C@@H](CCCCC)C(=O)N[C@@H](CC(N)=O)C(=O)N[C@@H](CCCNC(=N)N)C(=O)N(C)[C@@H](CCCC)C(=O)N[C@@H](CCCCC)C(=O)N2CCC[C@H]2C(=O)N[C@@H](C(C)C)C(=O)N[C@@H](CO)C(=O)N[C@H](C(=O)NCC(=O)O)CSCC(=O)N[C@@H](Cc2ccc3ccccc3c2)C(=O)N[C@@H](Cc2c[nH]c3ccccc23)C(=O)N[C@@H](CC(=O)O)C1=O [compound 1252] ({CH2CO}-[2Nal]WD[NHexGly]Y[Ahp(2)]NR[NMeNle][Ahp(2)]PVSCG-OH; thioether N-14)	6.4 nM
CCCCCCN1CC(=O)N[C@@H](Cc2ccc(O)cc2)C(=O)N[C@@H](CCCC)C(=O)N[C@@H](CC(N)=O)C(=O)N[C@@H](CCCNC(N)=O)C(=O)N(C)[C@@H](CCCC)C(=O)N[C@@H](CCCCC)C(=O)N2CCC[C@H]2C(=O)N[C@@H](C(C)C)C(=O)N[C@@H](CC(=O)O)C(=O)N[C@H](C(=O)NCC(=O)O)CSCC(=O)N[C@@H](Cc2ccc3ccccc3c2)C(=O)N[C@@H](Cc2c[nH]c3ccccc23)C(=O)N[C@@H](CC(=O)O)C1=O [compound 1253] ({CH2CO}-[2Nal]WD[NHexGly]Y[Nle]N[Cit][NMeNle][Ahp(2)]PVDCG-OH; thioether N-14)	6.9 nM
CCCCCCN1CC(=O)N[C@@H](Cc2ccc(O)cc2)C(=O)N[C@@H](CCCCC)C(=O)N[C@@H](CC(N)=O)C(=O)N[C@@H](CCCNC(=N)N)C(=O)N(C)[C@@H](CCCC)C(=O)N[C@@H](CCCCC)C(=O)N2CCC[C@H]2C(=O)N[C@@H](C(C)C)C(=O)N[C@@H](CC(=O)O)C(=O)N[C@H](C(=O)N[C@@H](CO)C(N)=O)CSCC(=O)N[C@@H](Cc2ccc3ccccc3c2)C(=O)N[C@@H](Cc2c[nH]c3ccccc23)C(=O)N[C@@H](CC(=O)O)C1=O [compound 1254] ({CH2CO}-[2Nal]WD[NHexGly]Y[Ahp(2)]NR[NMeNle][Ahp(2)]PVDCS-NH2; thioether N-14)	15.7 nM
CCCCCCN1CC(=O)N[C@@H](Cc2ccc(O)cc2)C(=O)N[C@@H](CCCC)C(=O)N[C@@H](CC(N)=O)C(=O)N[C@@H](CCCNC(=N)N)C(=O)N(C)[C@@H](CCCC)C(=O)N[C@@H](CCCCC)C(=O)N2CCC[C@H]2C(=O)N[C@@H](C(C)C)C(=O)N[C@@H](CC(=O)O)C(=O)N[C@H](C(=O)N[C@@H](CO)C(=O)O)CSCC(=O)N[C@@H](Cc2ccc3ccccc3c2)C(=O)N[C@@H](Cc2c[nH]c3ccccc23)C(=O)N[C@@H](CC(=O)O)C1=O [compound 1255] ({CH2CO}-[2Nal]WD[NHexGly]Y[Nle]NR[NMeNle][Ahp(2)]PVDCS-OH; thioether N-14)	13.1 nM

Continued, values first:

IC50	Structure (SMILES)
12.9 nM	CCCCCCN1CC(=O)N[C@@H](Cc2ccc(O)cc2)C(=O)N[C@@H](CCCC)C(=O)N[C@@H](CC(=O)O)C(=O)N[C@@H](CCCN)C(=O)N(C)[C@@H](CCCC)C(=O)N[C@@H](CCCCC)C(=O)N2CCC[C@H]2C(=O)N[C@@H](C(C)C)C(=O)N[C@@H](CC(=O)O)C(=O)N[C@H](C(=O)N[C@@H](CO)C(N)=O)CSCC(=O)N[C@@H](Cc2ccc3ccccc3c2)C(=O)N[C@@H](Cc2c[nH]c3ccccc23)C(=O)N[C@@H](CC(=O)O)C1=O [compound 1256] ({CH2CO}-[2Nal]WD[NHexGly]Y[Nle]D[Orn][NMeNle][Ahp(2)]PVDCS-NH2; thioether N-14)
11.3 nM	CCCCCCN1CC(=O)N[C@@H](Cc2ccc(O)cc2)C(=O)N[C@@H](CCCC)C(=O)N[C@@H](CC(=O)O)C(=O)N[C@@H](CCCNC(=N)N)C(=O)N(C)[C@@H](CCCC)C(=O)N[C@@H](CCCCC)C(=O)N2CCC[C@H]2C(=O)N[C@@H](C(C)C)C(=O)N[C@@H](CC(=O)O)C(=O)N[C@H](C(=O)N[C@@H](CO)C(N)=O)CSCC(=O)N[C@@H](Cc2ccc3ccccc3c2)C(=O)N[C@@H](Cc2c[nH]c3ccccc23)C(=O)N[C@@H](CC(=O)O)C1=O [compound 1257] ({CH2CO}-[2Nal]WD[NHexGly]Y[Nle]DR[NMeNle][Ahp(2)]PVDCS-NH2; thioether N-14)
12 nM	CCCCCCN1CC(=O)N[C@@H](Cc2ccc(O)cc2)C(=O)N[C@@H](CCCC)C(=O)N[C@@H](CC(N)=O)C(=O)N[C@@H](CCCNC(=N)N)C(=O)N(C)[C@@H](CCCNC(=N)N)C(=O)N[C@@H](CCCCC)C(=O)N2CCC[C@H]2C(=O)N[C@@H](C(C)C)C(=O)N[C@@H](CC(=O)O)C(=O)N[C@H](C(=O)NCC(=O)O)CSCC(=O)N[C@@H](Cc2ccc3ccccc3c2)C(=O)N[C@@H](Cc2c[nH]c3ccccc23)C(=O)N[C@@H](CC(=O)O)C1=O [compound 1258] ({CH2CO}-[2Nal]WD[NHexGly]Y[Nle]NR[NMeR][Ahp(2)]PVDCG-OH; thioether N-14)
8 nM	CCCCCCN1CC(=O)N[C@@H](Cc2ccc(O)cc2)C(=O)N[C@@H](CCCC)C(=O)N[C@@H](CC(N)=O)C(=O)N[C@@H](CCCNC(=N)N)C(=O)N(C)[C@@H](CO)C(=O)N[C@@H](CCCCC)C(=O)N2CCC[C@H]2C(=O)N[C@@H](C(C)C)C(=O)N[C@@H](CC(=O)O)C(=O)N[C@H](C(=O)NCC(=O)O)CSCC(=O)N[C@@H](Cc2ccc3ccccc3c2)C(=O)N[C@@H](Cc2c[nH]c3ccccc23)C(=O)N[C@@H](CC(=O)O)C1=O [compound 1259] ({CH2CO}-[2Nal]WD[NHexGly]Y[Nle]NR[NMeS][Ahp(2)]PVDCG-OH; thioether N-14)
